Data set [1] relates to KatoIII cells. Nature of the data set: Cell cycle analysis and CLDN18.2 surface expression of KatoIII cells cultivated with cytostatic compounds. As to conditions: for cell cycle arrest (phase of the cell cycle): KatoIII cells cultivated with cytostatic compound, DNA content by flow cytometry; for CLDN18.2 expression: KatoIII cells, cultivation for 96 hours.
Method: Epirubicin (Pfizer) was tested at a concentration of 10 or 100 ng/ml, 5-FU (Neofluor from NeoCorp AG) was tested at a concentration of 10 or 100 ng/ml, and oxaliplatin (Hospira) was tested at a concentration of 50 or 500 ng/ml.
As secondary reagent goat-anti-huIgG-APC from Dianova was used.
Cell cycle stages were determined based on measurement of cellular DNA content. […] Cell cycle analysis was done using the CycleTEST PLUS DNA Reagent Kit from BD Biosciences following the manufacturer's protocol. Flow cytometry acquisition and analysis were performed by using BD FACS CantoII (BD Biosciences) and FlowJo (Tree Star) software.
The test system of data set [2] is KatoIII cells. Nature of the data set: IMAB362-induced ADCC (luciferase) on KatoIII cells pretreated with Irinotecan, Docetaxel or Cisplatin. It counts as cell-based, human. As to conditions: KatoIII pretreated for 3 days; for level of viable cells compared to medium cultivated target cells: Irinotecan 1000 ng/ml, Docetaxel 5 ng/ml, Cisplatin 2000 ng/ml; for effect of pretreatment on potency of IMAB362 to induce ADCC: human PBMC effectors. The protocol:
Peripheral blood mononuclear cells (PBMCs) including NK cells, monocytes, mononuclear cells or other effector cells from healthy human donors were purified by Ficoll Hypaque density centrifugation. Washed effector cells were seeded in X-Vivo medium. KatoIII cells which express CLDN18.2 endogenously and are of gastric origin were used as target cells in this setting. Target cells stably expressed luciferase, lucifer yellow, which is oxidized by viable cells only.

Data set [3] has as its system KatoIII cells. Nature of the data set: KatoIII cells pretreated with Irinotecan or Docetaxel: cell growth and cell cycle arrest. It counts as cell-based, human. As to conditions: KatoIII cells pretreated for 4 days. The protocol: Cell cycle stages were determined based on measurement of cellular DNA content. This allows one to discriminate between cells in the G1-, S- or G2-phase of the cell cycle. In the S-phase DNA duplication occurs whereas in the G2-phase cells grow and prepare for mitosis. Cell cycle analysis was done using the CycleTEST PLUS DNA Reagent Kit from BD Biosciences following the manufacturer's protocol. Flow cytometry acquisition and analysis were performed by using BD FACS CantoII (BD Biosciences) and FlowJo (Tree Star) software.
KatoIII cells were pretreated for 4 days with Irinotecan or Docetaxel and analysed for CLDN18.2 expression and cell cycle arrest.

Data set [4] deals with PBMCs. Nature of the data set: Expansion of PBMC cultures with ZA/IL-2. It counts as cell-based, human. As to conditions: 14 days, 300 U/ml IL-2. The method, then:
PBMCs were harvested from healthy human donors and cultures were treated with a single dose of ZA. […] FIG. 8a. […] FIG. 8b. Increase in cell numbers was determined by counting living cells on day 6, 8, 11 and 14.

For data set [5], the system named is Vγ9Vδ2 T cells. Nature of the data set: Enrichment of Vγ9Vδ2 T cells in co-culture with monocytes ± ZA. It counts as cell-based, human. Particulars: co-cultures 14 days, ±1 μM ZA. The method, then:
The enrichment of Vγ9Vδ2 T cells in the co-cultures after 14 days was determined by multicolor FACS, whereas the expansion of the culture was considered in the calculation. The enrichment factor of Vγ9Vδ2 T cells cultured with monocytes in a 1:4 ratio was set to 100% for each experiment. […] This effect was clearly ZA-dependent; cf. FIG. 11a.

Data set [6] has as its system NUGC-4 cells. It counts as cell-based, human. The protocol:
(§1) Furthermore, human stomach cancer cells (NUGC-4-luciferase) and murine stomach cancer cells (CLS103-calcein stained) were pretreated with or w/o 5 μM ZA for 2 days. Human Vγ9Vδ2 T cells were MACS purified (day 14) and co-cultured with the cancer cells for 24 h. Cytotoxicity of Vγ9Vδ2 T cells towards non-treated and ZA-treated target cells was determined by measuring remaining luciferase activity or calcein fluorescence; cf. FIG. 11b. Target cells (NUGC-4 and CLS103) were pretreated with or w/o 5 μM ZA for 2 days and subsequently incubated for 4 h with mitomycin c ([…]) to stop proliferation. MACS purified human 14d old resting Vγ9Vδ2 T cells and ^3H-thymidine were added to the target cells and co-cultures were incubated for 48 h at 37° C. Proliferation was determined by measuring ^3H thymidine incorporation in the DNA using a MicroBeta scintillation counter. Proliferation of target cells not treated with ZA and w/o Vγ9Vδ2 T cells was set to 100%; cf. FIG. 11c.

Data set [7] concerns CLS103 cells. The protocol: as §1
Data set [8] has as its system HEK293~CLDN18.2 transfectants. Nature of the data set: Early treatment of HEK293~CLDN18.2 tumor xenografts. It counts as in vivo, nude mice. Particulars: isotype control, 200 μg twice per week for 6 weeks. From the text: Moreover, advanced tumor treatment experiments were initiated up to 9 days after tumor cell inoculation when tumors had reached volumes of about 60-120 mm^3.
Nude mice were subcutaneously inoculated with 1×10^7 HEK293˜CLDN18.2 transfectants. Treatment of 10 mice per group started 3 days after tumor inoculation. […] Not only time to death was prolonged, but 4 of 10 mice survived the entire observation period of 210 days.

Data set [9] deals with NUGC-4 xenografts. Nature of the data set: In vivo tumor targeting of Dyelight 680-labeled antibodies (fluorescence imaging). Set-up: species or system nude mice. Particulars: time not stated.

In the case of `O=c1[nH]cc(F)c(=O)[nH]1` [5-FU, 5-fluoro-1H-pyrimidine-2,4-dione], in data set [1], the “cell cycle arrest (phase of the cell cycle)” value is on record as “blocked predominantly in the S-phase” and the CLDN18.2 expression result is “stabilize CLDN18.2-expression”.

With `N.N.[Cl][Pt][Cl]` [Cisplatin, cis-diamminedichloroplatinum(II)], in data set [2], the “claudin18.2 expression compared to medium cultivated cells” value is “increased”, the “level of viable cells compared to medium cultivated target cells” value was “lower level of viable cells” and the “effect of pretreatment on potency of IMAB362 to induce ADCC” value (“effect of pretreatment” for short) is “augmented the potency of IMAB362 to induce ADCC”.

In the case of `CC(=O)O[C@@]12CO[C@@H]1C[C@H](O)[C@@]1(C)C(=O)[C@H](O)C3=C(C)[C@@H](OC(=O)[C@H](O)[C@@H](NC(=O)OC(C)(C)C)c4ccccc4)C[C@@](O)([C@@H](OC(=O)c4ccccc4)[C@H]21)C3(C)C` [Docetaxel, docetaxel], in data set [3], the “cell cycle arrest (phase)” value is recorded as “cell cycle arrest in the G2-phase” and the “inhibition of cell growth” value was “dose dependent inhibition of cell growth”. Also, in [2], the “claudin18.2 expression compared to medium cultivated cells” value is listed as “increased”, the “level of viable cells compared to medium cultivated target cells” value is listed as “lower level of viable cells” and the “effect of pretreatment” value was “augmented the potency of IMAB362 to induce ADCC”.

Turning to `COc1cccc2c1C(=O)c1c(O)c3c(c(O)c1C2=O)C[C@@](O)(C(=O)CO)C[C@@H]3O[C@H]1C[C@H](N)[C@@H](O)[C@H](C)O1` [Epirubicin], in [1], the “cell cycle arrest (phase of the cell cycle)” value is reported as “cell cycle arrest predominantly in the G2-phase” and the CLDN18.2 expression entry is given as “stabilize CLDN18.2-expression”.

Regarding `CCc1c2c(nc3ccc(OC(=O)N4CCC(N5CCCCC5)CC4)cc13)-c1cc3c(c(=O)n1C2)COC(=O)[C@]3(O)CC` [Irinotecan, (S)-4,11-diethyl-3,4,12,14-tetrahydro-4-hydroxy-3,14-dioxo1H-pyrano[3′,4′:6,7]-indolizino[1,2-b]quinolin-9-yl-[1,4′bipiperidine]-1′-carboxylate], in data set [3], the “cell cycle arrest (phase)” value is “cell cycle arrest in the S/G2-phase” and the “inhibition of cell growth” value is “dose dependent inhibition of cell growth”. In data set [2], the “claudin18.2 expression compared to medium cultivated cells” value is recorded as “increased”, the “level of viable cells compared to medium cultivated target cells” value is “lower level of viable cells” and the “effect of pretreatment” value is “augmented the potency of IMAB362 to induce ADCC”.

Regarding `O=C1[O][Pt]2([NH][C@@H]3CCCC[C@H]3[NH]2)[O]C1=O` [Oxaliplatin, [(1R,2R)-cyclohexane-1,2-diamine](ethanedioato-O,O′)platinum(II)], the “cell cycle arrest (phase of the cell cycle)” value in data set [1] was “enrichment of cells predominantly in the G1- and G2-phases”.

For `O=P(O)(O)C(O)(Cn1ccnc1)P(=O)(O)O` [ZA, [1-hydroxy-2-(1H-imidazol-1-yl)ethane-1,1-diyl]bis(phosphonic acid)], the “lower expansion of cells in medium without ZA versus with ZA” value in data set [4] is given as “about 2 fold”. For the same compound, in [5], the “enrichment of Vγ9Vδ2 T cells with increase of monocytes in the culture (ZA-dependent)” value is on record as “more than 10 fold”. Also, in data set [6], the “activation of Vγ9Vδ2 T cell cytotoxicity by ZA-pulsed cancer cells” value is listed as 5-10 fold. Further, in data set [7], the “activation of Vγ9Vδ2 T cells (cytotoxicity and proliferation) by ZA-pulsed cancer cells” value was “failed to elicit these effects”.

As for “infliximab: isotype control antibody [reference compound]”, in data set [8], the “time within which all mice died” value lay within 70 to 80 days.

For the compound “rituximab: Dyelight 680-labeled negative control antibody (NUGC-4 negative for CD20) [reference compound]”, the “signal of labeled antibody (negative control, NUGC-4 negative for CD20)” value in [9] is recorded as “No signal is detected”.
